Biological target: AtOPR3 (Arabidopsis thaliana, UniProt Q9FUP0)
Assay: X-ray crystal structure, […] Å
Format: binding
Conditions: ternary complex with 8-iso PGA1; one FMN per monomer

Chain of AtOPR3 (Q9FUP0 whole entry): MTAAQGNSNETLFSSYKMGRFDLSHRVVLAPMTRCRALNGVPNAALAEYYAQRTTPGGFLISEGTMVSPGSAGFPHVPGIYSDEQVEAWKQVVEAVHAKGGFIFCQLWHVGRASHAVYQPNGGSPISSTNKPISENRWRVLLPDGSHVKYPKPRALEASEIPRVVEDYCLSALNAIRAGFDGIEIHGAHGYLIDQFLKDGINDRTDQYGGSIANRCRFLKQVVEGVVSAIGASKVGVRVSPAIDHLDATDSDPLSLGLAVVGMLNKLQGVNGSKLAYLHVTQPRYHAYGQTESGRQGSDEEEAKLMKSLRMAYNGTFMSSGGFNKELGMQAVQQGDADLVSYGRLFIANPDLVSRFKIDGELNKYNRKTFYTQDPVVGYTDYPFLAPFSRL

Cc1cc2nc3c(=O)[nH]c(=O)nc-3n(C[C@H](O)[C@H](O)[C@H](O)COP(=O)(O)O)c2cc1C [FMN]
X-ray crystal structure, 2.6 Å: each AtOPR3 monomer contains one FMN and one 8-iso PGA1 molecule
